Assay results taken from US10231954B2, “Neurodegenerative therapies” (LYTIX BIOPHARMA AS, priority 2014, dated 2019).

Columns and labels:
Format in all cases: biochemical
MKK1 = MKK1 (Homo sapiens, UniProt Q02750); assay: Kinase profiling MKK1; conditions: 100 micromolar inhibitor concentration, 100 is no change
Excerpt: (§1) Any value less that 25 is considered to be highly significant inhibition.

ERK2 = ERK2 (Homo sapiens, UniProt P28482); assay: Kinase profiling ERK2; conditions: 100 micromolar inhibitor concentration, 100 is no change
Excerpt: as §1

JNK3 = JNK3 (Homo sapiens, UniProt P53779); assay: Kinase profiling JNK3; conditions: 100 micromolar inhibitor concentration, 100 is no change
Excerpt: as §1

p38g MAPK = molecular target: T1, p38g MAPK (Homo sapiens, UniProt P53778); assay: Kinase profiling p38g MAPK; conditions: 100 micromolar inhibitor concentration, 100 is no change
T1 sequence (P53778 1-367): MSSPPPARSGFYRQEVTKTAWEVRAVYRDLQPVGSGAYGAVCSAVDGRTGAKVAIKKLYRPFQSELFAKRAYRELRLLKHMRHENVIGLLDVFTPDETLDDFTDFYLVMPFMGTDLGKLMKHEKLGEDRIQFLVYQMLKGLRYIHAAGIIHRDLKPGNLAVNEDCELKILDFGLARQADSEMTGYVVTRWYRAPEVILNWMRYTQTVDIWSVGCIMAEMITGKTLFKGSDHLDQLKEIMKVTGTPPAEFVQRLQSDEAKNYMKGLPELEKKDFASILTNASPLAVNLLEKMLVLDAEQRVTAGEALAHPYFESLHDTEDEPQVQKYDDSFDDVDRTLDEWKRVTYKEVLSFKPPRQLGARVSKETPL
Excerpt: as §1

SGK1 = molecular target: T2, SGK1 (Homo sapiens, UniProt O00141); assay: Kinase profiling SGK1; conditions: 100 micromolar inhibitor concentration, 100 is no change
T2 sequence (O00141 1-431): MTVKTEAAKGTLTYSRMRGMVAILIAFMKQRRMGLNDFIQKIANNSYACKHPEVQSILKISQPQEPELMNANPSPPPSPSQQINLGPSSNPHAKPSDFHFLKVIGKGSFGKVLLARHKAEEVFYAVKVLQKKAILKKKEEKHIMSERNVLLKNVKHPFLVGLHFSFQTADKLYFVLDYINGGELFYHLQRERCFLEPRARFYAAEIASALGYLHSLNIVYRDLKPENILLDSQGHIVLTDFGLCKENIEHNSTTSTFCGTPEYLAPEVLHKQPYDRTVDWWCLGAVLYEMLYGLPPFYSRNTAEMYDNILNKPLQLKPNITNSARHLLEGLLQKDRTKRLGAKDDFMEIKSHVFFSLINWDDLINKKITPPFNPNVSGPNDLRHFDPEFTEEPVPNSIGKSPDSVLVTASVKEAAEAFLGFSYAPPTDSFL
Excerpt: as §1

PKD1 = molecular target: T3, PKD1 (Homo sapiens, UniProt Q15139); assay: Kinase profiling PKD1; conditions: 100 micromolar inhibitor concentration, 100 is no change
T3 sequence (Q15139 1-912): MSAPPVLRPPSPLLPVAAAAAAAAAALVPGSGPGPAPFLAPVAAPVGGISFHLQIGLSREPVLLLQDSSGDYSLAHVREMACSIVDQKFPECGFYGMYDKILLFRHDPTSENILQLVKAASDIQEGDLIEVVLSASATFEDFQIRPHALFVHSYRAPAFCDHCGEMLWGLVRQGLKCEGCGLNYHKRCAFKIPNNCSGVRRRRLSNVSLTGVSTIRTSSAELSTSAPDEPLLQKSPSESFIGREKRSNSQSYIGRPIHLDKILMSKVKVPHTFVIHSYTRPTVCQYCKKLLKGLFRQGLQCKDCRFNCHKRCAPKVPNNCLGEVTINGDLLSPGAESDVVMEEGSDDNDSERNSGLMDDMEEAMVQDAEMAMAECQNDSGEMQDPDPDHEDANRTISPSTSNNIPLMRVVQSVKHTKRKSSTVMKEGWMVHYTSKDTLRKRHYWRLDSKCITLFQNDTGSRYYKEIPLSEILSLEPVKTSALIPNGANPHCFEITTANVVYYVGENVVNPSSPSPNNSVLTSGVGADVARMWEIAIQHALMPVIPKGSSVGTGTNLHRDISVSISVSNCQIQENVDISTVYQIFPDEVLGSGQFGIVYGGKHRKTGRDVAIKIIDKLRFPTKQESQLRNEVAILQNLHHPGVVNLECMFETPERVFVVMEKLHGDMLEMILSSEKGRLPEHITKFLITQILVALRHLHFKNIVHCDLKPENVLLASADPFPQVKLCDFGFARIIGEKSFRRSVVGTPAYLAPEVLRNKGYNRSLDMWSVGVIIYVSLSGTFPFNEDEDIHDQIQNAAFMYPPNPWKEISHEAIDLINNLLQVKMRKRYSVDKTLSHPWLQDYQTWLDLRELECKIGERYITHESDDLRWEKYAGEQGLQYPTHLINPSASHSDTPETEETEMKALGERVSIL
Excerpt: as §1

STK33 = STK33 (Homo sapiens, UniProt Q9BYT3); assay: Kinase profiling STK33; conditions: 100 micromolar inhibitor concentration, 100 is no change
Excerpt: as §1

CHK2 = CHK2 (Homo sapiens, UniProt O96017); assay: Kinase profiling CHK2; conditions: 100 micromolar inhibitor concentration, 100 is no change
Excerpt: as §1

DYRK1A = DYRK1A (Homo sapiens, UniProt Q13627); assay: DYRK 1A assay (kinase profiling); conditions: 100 micromolar inhibitor concentration, 100 is no change
Method: Assays are stopped by addition of 5 μl of 0.5 M (3%) orthophosphoric acid and then harvested onto P81 Unifilter plates with a wash buffer of 50 mM orthophosphoric acid.
as §1

EF2K = EF2K (Homo sapiens, UniProt O00418); assay: Kinase profiling EF2K; conditions: 100 micromolar inhibitor concentration, 100 is no change
Excerpt: as §1

HIPK2 = HIPK2 (Homo sapiens, UniProt Q9H2X6); assay: Kinase profiling HIPK2; conditions: 100 micromolar inhibitor concentration, 100 is no change
Excerpt: as §1

TAK1 = molecular target: T4, TAK1 (Homo sapiens, UniProt O43318); assay: Kinase profiling TAK1; conditions: 100 micromolar inhibitor concentration, 100 is no change
T4 sequence (O43318 1-303 limits assumed): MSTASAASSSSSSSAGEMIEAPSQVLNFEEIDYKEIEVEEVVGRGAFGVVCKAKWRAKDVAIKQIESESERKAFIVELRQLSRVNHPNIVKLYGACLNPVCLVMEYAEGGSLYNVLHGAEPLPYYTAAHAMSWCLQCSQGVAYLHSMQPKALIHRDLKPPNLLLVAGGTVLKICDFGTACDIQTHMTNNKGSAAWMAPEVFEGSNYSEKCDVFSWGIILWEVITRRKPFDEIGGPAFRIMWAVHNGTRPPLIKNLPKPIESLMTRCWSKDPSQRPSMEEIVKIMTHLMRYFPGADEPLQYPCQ
T4 sequence (Q15750 437-504 partner limits assumed): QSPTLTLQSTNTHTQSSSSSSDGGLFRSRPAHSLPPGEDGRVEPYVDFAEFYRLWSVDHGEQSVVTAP
Excerpt: as §1

JAK2 = JAK2 (Homo sapiens, UniProt O60674); assay: Kinase profiling JAK2; conditions: 100 micromolar inhibitor concentration, 100 is no change
Excerpt: as §1

TrkA = TrkA (Homo sapiens, UniProt P04629); assay: Kinase profiling TrkA; conditions: 100 micromolar inhibitor concentration, 100 is no change
Excerpt: as §1

VEG-FR = assay: Kinase profiling VEG-FR; conditions: 100 micromolar inhibitor concentration; 100 is no change
Excerpt: as §1

Sequence of CHK2 (O96017 whole entry, species assumed): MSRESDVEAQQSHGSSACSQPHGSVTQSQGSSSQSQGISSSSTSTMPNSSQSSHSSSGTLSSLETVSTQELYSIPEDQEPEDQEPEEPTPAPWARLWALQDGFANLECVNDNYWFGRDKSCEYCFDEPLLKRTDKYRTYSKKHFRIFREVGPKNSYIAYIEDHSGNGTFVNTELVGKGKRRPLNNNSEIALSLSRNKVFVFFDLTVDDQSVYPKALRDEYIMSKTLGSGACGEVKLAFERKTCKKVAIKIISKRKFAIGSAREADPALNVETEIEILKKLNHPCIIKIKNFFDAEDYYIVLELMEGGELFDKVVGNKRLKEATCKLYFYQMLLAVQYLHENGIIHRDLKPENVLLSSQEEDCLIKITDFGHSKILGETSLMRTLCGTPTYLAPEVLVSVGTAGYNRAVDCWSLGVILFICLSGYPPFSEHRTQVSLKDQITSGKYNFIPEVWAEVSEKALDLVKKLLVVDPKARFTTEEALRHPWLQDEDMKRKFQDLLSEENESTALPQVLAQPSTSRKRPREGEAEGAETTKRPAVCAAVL
Sequence of MKK1 (Q02750 whole entry, species assumed): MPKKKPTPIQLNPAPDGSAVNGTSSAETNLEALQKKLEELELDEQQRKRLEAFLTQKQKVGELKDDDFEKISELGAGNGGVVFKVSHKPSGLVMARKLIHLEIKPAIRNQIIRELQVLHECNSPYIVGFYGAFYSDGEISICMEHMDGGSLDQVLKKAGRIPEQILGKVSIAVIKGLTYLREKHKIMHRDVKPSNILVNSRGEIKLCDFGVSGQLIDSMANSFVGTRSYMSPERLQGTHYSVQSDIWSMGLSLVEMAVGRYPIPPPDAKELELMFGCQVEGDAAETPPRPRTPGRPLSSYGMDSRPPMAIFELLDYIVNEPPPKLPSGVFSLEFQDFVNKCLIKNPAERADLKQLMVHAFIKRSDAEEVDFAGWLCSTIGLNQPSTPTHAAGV
Sequence of ERK2 (P28482 whole entry, species assumed): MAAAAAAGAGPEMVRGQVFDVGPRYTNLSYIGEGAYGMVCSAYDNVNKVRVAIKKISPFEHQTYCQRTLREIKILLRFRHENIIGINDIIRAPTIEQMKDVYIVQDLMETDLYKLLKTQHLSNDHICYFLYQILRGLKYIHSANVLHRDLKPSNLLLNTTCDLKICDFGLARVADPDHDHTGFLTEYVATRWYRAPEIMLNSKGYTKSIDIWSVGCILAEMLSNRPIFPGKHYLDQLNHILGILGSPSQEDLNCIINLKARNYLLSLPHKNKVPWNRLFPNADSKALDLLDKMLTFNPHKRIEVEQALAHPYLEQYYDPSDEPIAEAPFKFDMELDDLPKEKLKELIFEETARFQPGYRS
Sequence of STK33 (Q9BYT3 whole entry, species assumed): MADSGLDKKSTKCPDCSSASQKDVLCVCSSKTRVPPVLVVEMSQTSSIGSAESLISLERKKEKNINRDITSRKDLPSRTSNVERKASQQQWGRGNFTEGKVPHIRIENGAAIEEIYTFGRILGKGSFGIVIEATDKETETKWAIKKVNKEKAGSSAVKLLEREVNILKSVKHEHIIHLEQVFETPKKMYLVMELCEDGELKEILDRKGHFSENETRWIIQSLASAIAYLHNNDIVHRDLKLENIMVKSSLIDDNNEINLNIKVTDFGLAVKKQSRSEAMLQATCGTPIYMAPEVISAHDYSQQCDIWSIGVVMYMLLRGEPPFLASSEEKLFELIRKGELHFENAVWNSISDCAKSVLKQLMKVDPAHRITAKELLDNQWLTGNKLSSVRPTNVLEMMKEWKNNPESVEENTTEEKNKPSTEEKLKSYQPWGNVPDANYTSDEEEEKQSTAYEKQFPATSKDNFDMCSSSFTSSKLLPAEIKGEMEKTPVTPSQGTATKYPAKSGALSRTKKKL
Sequence of JAK2 (O60674 whole entry, species assumed): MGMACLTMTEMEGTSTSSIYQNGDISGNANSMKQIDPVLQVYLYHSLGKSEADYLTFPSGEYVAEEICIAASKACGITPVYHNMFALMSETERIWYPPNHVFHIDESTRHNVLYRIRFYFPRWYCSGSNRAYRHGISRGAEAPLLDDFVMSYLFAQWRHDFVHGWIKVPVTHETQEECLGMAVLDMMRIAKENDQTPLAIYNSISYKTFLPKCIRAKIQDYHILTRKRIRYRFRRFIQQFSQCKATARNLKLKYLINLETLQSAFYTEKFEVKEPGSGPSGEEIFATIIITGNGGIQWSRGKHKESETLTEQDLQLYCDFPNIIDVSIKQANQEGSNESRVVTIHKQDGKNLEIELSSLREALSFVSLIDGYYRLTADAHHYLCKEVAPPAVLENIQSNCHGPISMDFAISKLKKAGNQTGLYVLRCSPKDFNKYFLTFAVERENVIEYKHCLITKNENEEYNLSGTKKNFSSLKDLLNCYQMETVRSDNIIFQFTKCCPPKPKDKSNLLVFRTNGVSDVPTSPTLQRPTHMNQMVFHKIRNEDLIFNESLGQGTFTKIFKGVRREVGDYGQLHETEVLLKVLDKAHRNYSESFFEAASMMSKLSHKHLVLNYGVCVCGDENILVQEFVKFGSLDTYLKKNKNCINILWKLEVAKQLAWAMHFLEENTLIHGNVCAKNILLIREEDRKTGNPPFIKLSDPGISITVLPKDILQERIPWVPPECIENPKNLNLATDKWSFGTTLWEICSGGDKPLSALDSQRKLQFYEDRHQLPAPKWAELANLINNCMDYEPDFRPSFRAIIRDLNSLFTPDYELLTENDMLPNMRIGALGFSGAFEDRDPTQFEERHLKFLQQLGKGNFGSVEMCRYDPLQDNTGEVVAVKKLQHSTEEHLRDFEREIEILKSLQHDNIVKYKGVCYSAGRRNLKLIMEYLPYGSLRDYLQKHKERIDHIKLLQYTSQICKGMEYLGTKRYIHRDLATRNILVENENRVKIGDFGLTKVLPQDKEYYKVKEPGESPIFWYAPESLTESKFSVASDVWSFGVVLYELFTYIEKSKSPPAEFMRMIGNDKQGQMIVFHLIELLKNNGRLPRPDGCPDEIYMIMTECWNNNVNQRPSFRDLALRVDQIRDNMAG
Sequence of HIPK2 (Q9H2X6 whole entry, species assumed): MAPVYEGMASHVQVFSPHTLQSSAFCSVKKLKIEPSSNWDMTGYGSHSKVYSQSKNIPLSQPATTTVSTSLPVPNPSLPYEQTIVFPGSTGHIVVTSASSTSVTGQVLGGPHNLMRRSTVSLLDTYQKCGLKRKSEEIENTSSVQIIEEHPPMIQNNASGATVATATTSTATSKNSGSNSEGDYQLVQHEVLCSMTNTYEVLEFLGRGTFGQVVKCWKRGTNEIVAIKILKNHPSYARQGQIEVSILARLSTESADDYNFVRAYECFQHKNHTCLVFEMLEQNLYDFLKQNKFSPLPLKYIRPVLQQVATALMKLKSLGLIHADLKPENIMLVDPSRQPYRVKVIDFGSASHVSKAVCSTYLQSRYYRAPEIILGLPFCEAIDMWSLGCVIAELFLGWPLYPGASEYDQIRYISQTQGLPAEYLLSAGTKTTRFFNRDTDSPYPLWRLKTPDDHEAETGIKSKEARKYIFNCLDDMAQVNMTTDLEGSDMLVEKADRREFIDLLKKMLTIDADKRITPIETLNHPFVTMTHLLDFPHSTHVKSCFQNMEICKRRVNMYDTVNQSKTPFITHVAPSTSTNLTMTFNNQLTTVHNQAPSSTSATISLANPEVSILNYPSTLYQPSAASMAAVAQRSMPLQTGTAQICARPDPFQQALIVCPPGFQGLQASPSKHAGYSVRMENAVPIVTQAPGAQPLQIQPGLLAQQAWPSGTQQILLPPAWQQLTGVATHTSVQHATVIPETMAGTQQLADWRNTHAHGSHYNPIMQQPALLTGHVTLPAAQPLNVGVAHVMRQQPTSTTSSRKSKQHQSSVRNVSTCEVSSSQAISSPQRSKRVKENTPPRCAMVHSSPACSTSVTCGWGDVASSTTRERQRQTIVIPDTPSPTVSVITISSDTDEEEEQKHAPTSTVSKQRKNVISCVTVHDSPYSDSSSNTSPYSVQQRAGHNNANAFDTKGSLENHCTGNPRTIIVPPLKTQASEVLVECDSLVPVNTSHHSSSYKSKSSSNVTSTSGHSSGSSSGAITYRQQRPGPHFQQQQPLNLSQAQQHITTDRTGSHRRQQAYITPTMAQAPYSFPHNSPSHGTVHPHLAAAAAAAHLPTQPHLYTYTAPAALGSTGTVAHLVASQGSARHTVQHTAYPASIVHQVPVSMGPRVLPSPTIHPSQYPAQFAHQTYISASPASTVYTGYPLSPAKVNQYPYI
Sequence of TrkA (P04629 33-796, species assumed): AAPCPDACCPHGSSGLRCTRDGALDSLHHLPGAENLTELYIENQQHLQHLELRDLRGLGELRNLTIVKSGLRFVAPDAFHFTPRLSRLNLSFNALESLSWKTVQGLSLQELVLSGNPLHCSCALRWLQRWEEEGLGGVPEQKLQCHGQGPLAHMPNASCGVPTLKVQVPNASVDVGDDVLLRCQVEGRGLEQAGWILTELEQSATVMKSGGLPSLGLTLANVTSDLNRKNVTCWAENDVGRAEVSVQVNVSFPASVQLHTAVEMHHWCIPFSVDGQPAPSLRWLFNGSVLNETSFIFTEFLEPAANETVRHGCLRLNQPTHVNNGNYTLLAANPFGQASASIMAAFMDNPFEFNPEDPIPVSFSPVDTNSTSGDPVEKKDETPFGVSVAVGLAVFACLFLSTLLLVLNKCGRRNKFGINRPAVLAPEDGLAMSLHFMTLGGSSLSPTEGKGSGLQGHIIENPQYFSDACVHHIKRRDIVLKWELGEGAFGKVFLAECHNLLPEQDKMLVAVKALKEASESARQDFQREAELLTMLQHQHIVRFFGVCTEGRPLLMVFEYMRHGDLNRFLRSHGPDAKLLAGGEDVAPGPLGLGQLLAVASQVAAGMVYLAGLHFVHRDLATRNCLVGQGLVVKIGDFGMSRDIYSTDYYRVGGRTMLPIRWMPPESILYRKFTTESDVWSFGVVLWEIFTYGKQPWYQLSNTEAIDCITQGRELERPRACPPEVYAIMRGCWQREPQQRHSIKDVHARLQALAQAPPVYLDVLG

CC(=O)Nc1nc2cc(C)ccc2s1 [Compound 03-76]
residual kinase activity, MKK1 (MKK1): 73 | residual kinase activity, ERK2 (ERK2): 96 | residual kinase activity, JNK3 (JNK3): 76 | residual kinase activity, p38g MAPK (p38g MAPK): 92 | residual kinase activity, SGK1 (SGK1): 65 | residual kinase activity, PKD1 (PKD1): 89 | residual kinase activity, STK33 (STK33): 80 | residual kinase activity, CHK2 (CHK2): 65 | residual kinase activity, DYRK1A (DYRK1A): 23 | residual kinase activity, EF2K (EF2K): 110 | residual kinase activity, HIPK2 (HIPK2): 51 | residual kinase activity, TAK1 (TAK1): 52 | residual kinase activity, JAK2 (JAK2): 51 | residual kinase activity, TrkA (TrkA): 56 | residual kinase activity, VEG-FR (VEG-FR): 50

CC(=O)Nc1nc2cc(F)ccc2s1 [Compound 03-77]
remaining activity at 100 µM (MKK1; read-out: residual kinase activity, MKK1): 87% | remaining activity at 100 µM (ERK2; read-out: residual kinase activity, ERK2): 99% | remaining activity at 100 µM (JNK3; read-out: residual kinase activity, JNK3): 68% | remaining activity at 100 µM (p38g MAPK; read-out: residual kinase activity, p38g MAPK): 77% | remaining activity at 100 µM (SGK1; read-out: residual kinase activity, SGK1): 66% | remaining activity at 100 µM (PKD1; read-out: residual kinase activity, PKD1): 66% | remaining activity at 100 µM (STK33; read-out: residual kinase activity, STK33): 70% | remaining activity at 100 µM (CHK2; read-out: residual kinase activity, CHK2): 63% | remaining activity at 100 µM (DYRK1A; read-out: residual kinase activity, DYRK1A): 7% | remaining activity at 100 µM (EF2K; read-out: residual kinase activity, EF2K): 99% | remaining activity at 100 µM (HIPK2; read-out: residual kinase activity, HIPK2): 22% | remaining activity at 100 µM (TAK1; read-out: residual kinase activity, TAK1): 46% | remaining activity at 100 µM (JAK2; read-out: residual kinase activity, JAK2): 57% | remaining activity at 100 µM (TrkA; read-out: residual kinase activity, TrkA): 59% | residual kinase activity, VEG-FR (VEG-FR): 48

O=C(Nc1nc2ccc(O)cc2s1)c1ccncc1 [Compound 08-42]
residual kinase activity, MKK1 (MKK1): 87 | residual kinase activity, ERK2 (ERK2): 73 | residual kinase activity, JNK3 (JNK3): 65 | residual kinase activity, p38g MAPK (p38g MAPK): 87 | residual kinase activity, SGK1 (SGK1): 60 | residual kinase activity, PKD1 (PKD1): 63 | residual kinase activity, STK33 (STK33): 67 | residual kinase activity, CHK2 (CHK2): 22 | residual kinase activity, DYRK1A (DYRK1A): 15 | residual kinase activity, EF2K (EF2K): 79 | residual kinase activity, HIPK2 (HIPK2): 23 | residual kinase activity, TAK1 (TAK1): 25 | residual kinase activity, JAK2 (JAK2): 50 | residual kinase activity, TrkA (TrkA): 81 | residual kinase activity, VEG-FR (VEG-FR): 20

O=C(Nc1nc2ccc(O)cc2s1)c1cccnc1 [Compound 08-44]
residual kinase activity, MKK1 (MKK1): 67 | residual kinase activity, ERK2 (ERK2): 75 | residual kinase activity, JNK3 (JNK3): 64 | residual kinase activity, p38g MAPK (p38g MAPK): 77 | residual kinase activity, SGK1 (SGK1): 51 | residual kinase activity, PKD1 (PKD1): 54 | residual kinase activity, STK33 (STK33): 57 | residual kinase activity, CHK2 (CHK2): 16 | residual kinase activity, DYRK1A (DYRK1A): 8 | residual kinase activity, EF2K (EF2K): 67 | residual kinase activity, HIPK2 (HIPK2): 19 | residual kinase activity, TAK1 (TAK1): 18 | residual kinase activity, JAK2 (JAK2): 30 | residual kinase activity, TrkA (TrkA): 71 | residual kinase activity, VEG-FR (VEG-FR): 21
